The test system of data set [1] is neutropenia induced by an anticancer agent (gemcitabine). The experiment in a line: Mouse experiment of antineoplastic chemotherapy-induced neutropenia (gemcitabine). To be noted: for reduction in the number of neutrophils: 3 weeks, relative to normal group; for Number of neutrophils: Gemcitabine (50 mg/kg) i.p. daily 3 weeks, compound 50 mg/kg oral daily 3 weeks, neutrophils in 1 μl of blood. Type of data set: in vivo, C57BL/6 mice. The protocol: 50 mg/kg of gemcitabine, used as an anticancer agent, was injected intraperitoneally into C57BL/6 mice every day for 3 weeks and used as a control group. 50 mg/kg of the compounds of Example 1, Example 2, and Comparative Example 1 were orally administered for 3 weeks every day, and after 3 weeks, the number of neutrophils in 1 μl of blood was measured using an automatic blood sample analyzer (Auto Hematology Analyzer BC-5900, Mindray), and the results are shown in Table 7 and FIG. 11 below.

In data set [2] the test system is NO production. Put plainly: Inhibition of NO production in LPS-treated peritoneal macrophages (Griess reagent). Type of data set: cell-based, C57BL/6 mice. Conditions: 24 hours, LPS control group = 100. The protocol:
(§1) As experimental animals, 8-week-old C57BL/6 mice were bred for 7 days under the environment of a temperature of 22±2° C., a relative humidity of 65±5% and a 12-hour cycle in light and dark, and then adapted to the laboratory environment, and then used for the experiment. Solid feed (Samyang feed) and water were sufficiently supplied.
(§2) HBSS was intraperitoneally injected into a mouse to extract macrophages, which was centrifuged at 3,000 rpm for 5 minutes, and then 100 units/mL of penicillin/streptomycin was added to DMEM medium with 10% fetal bovine serum (FBS), and peritoneal macrophage was isolated. It was incubated in a 37° C., 5% CO2 incubator for 24 hours, and then used in the experiment.
The cultured peritoneal macrophages were suspended in DMEM containing 10% FBS, dispensed into a 96-well plate at 5×10^5 cells/well and incubated for 24 hours in a 37° C., 5% CO2 incubator, and replaced with new DMEM medium. Then, the peritoneal macrophages were treated with each of the compounds of Examples 1 and 2 and Comparative Example at different concentrations (10 μg/ml, 100 μg/ml, and 200 μg/ml, respectively), and LPS (1 μg/ml) was treated. Then, the cells were incubated for 24 hours. After incubation, the supernatant was separated, centrifuged at 3000 rpm for 5 minutes, and the separated supernatant was dispensed onto a new microplate. The normal group was untreated, and the control group was treated with only LPS (1 μg/ml) on the peritoneal macrophages.
The same amount of Griess reagent (1% sulfanilamide, 0.1% naphthyl-ethylenediamine dihydrochloride, 2% phosphoric acid) was treated, and reacted at room temperature for 10 minutes. After the culture solution was reacted with the Griess solution for […], the absorbance (OD) was measured at 540 nm.

Data set [3] has as its system TNF-α. The experiment in a line: Inhibition of TNF-α production in LPS-induced mouse peritoneal macrophages (ELISA). The data set is classed as cell-based. To be noted: LPS (1 μg/ml), 12 hours. On the procedure:
as §1, §2
(§3) The secretion amount of IL-6, IL-1β and TNF-α secreted from mouse peritoneal macrophages induced by lipopolysaccharide (LPS), which is an inflammatory response inducer, was measured by an ELISA assay (Millipore, USA) to thereby evaluate the anti-inflammatory activity.
(§4) In order to obtain a cell culture solution, mouse peritoneal macrophages were adjusted to 3×10^5 cells/mL, inoculated into a 96-well plate, cultured for 24 hours, and then the compounds of Example 1 (PCA glycerol), Example 2 (CPA glycerol) and Comparative Example (PLA glycerol) were treated at different concentrations (10 μg/ml, 100 μg/ml, and 200 μg/ml, respectively), and LPS (1 μg/ml) was treated. The normal group was untreated, and the control group was treated with only LPS (1 μg/ml) on peritoneal macrophages. After culturing for 12 hours, a supernatant was obtained by centrifugation. ELISA was run in microplates coated with anti-mouse IL-6, IL-1β and TNF-α as the capture antibody. Then, the cells were washed with phosphate buffered saline (PBST) containing 0.05% Tween 20, blocked with 10% FBS, and washed with PBST. The cell culture supernatant was dispensed into the wells, and reacted at room temperature for 2 hours. After the reaction, washing was performed with PBST and dilute biotinylated anti-mouse IL-6, IL-1β and TNF-α detection antibody and streptavidin-horseradish peroxydase conjugate were dispensed and reacted at room temperature for 1 hour. Then, washing was performed again with PBST, and an OPD solution was added, and then the mixture was subjected to dark reaction at room temperature for 30 minutes. After the reaction was terminated with 2N H2504, the absorbance was measured at 450 nm using a microplate reader.

The test system of data set [4] is IL-6. The experiment in a line: Inhibition of IL-6 production in LPS-induced mouse peritoneal macrophages (ELISA). The data set is classed as cell-based. To be noted: LPS (1 μg/ml), 12 hours. On the procedure:
as §1, §2, §3, §4

In data set [5] the test system is neutropenia induced by an anticancer agent (tamoxifen). Put plainly: Mouse experiment of antineoplastic chemotherapy-induced neutropenia (tamoxifen). Type of data set: in vivo, C57BL/6 mice. Conditions: for Number of neutrophils: Tamoxifen (50 mg/kg) i.p. daily 3 weeks, compound 50 mg/kg oral daily 3 weeks, neutrophils in 1 μl of blood; for decrease in the number of neutrophils: tamoxifen 50 mg/kg plus compound 50 mg/kg oral. The protocol: 50 mg/kg of Tamoxifen, used as an anticancer agent, was intraperitoneally injected into C57BL/6 mice every day for 3 weeks and used as a control group, and 50 mg/kg of the compounds of Example 1, Example 2, and Comparative Example 1 were orally administered for 3 weeks every day, and after 3 weeks, the number of neutrophils in 1 μl of blood was measured using an automatic blood sample analyzer (Auto Hematology Analyzer BC-5900, Mindray), and the results are shown in Table 8 and FIG. 12 below.

The test system of data set [6] is peritoneal macrophages. The experiment in a line: Evaluation of cytotoxicity using MTT assay. Type of data set: cell-based, C57BL/6 mice. Conditions: 24 hours. On the procedure:
as §1, §2
100 uL of the cultured peritoneal macrophages were dispensed into a 96-well plate at 3×10^5 cells/well and cultured overnight. After removing the medium, the peritoneal macrophage was treated with the compounds of Example 1 (PCA glycerol) and Example 2 (CPA glycerol) at different concentrations (10 μg/ml, 100 μg/ml, and 200 μg/ml, respectively), and then incubated for 24 hours in a 37° C., 5% CO2 incubator. After incubation, the medium was removed, 40 uL of MTT (5 mg/mL) reagent was dispensed and incubated for 4 hours in a CO2 incubator, the MTT reagent was removed, and 600 uL of DMSO reagent was dispensed, and then left at room temperature for 30 minutes. Then, the absorbance (OD) was measured at 540 nm with a microplate reader.
A general note: Formazan colour is commonly taken as a measure of viable cells.

In data set [7] the test system is IL-1β. The experiment in a line: Inhibition of IL-1β production in LPS-induced mouse peritoneal macrophages (ELISA). Type of data set: cell-based. Conditions: LPS (1 μg/ml), 12 hours. The protocol:
as §1, §2, §3, §4

Where [8] appears, read: 3 weeks, relative to normal group.
[9] abbreviates: gemcitabine 50 mg/kg plus compound 50 mg/kg oral.

Results on 5 compounds are retold here after patent US20210275488A1, “NOVEL COMPOUND ISOLATED FROM CERVI PARVUM CORNU, AND PHARMACEUTICAL USES THEREOF” (FNG RESEARCH CO., LTD., priority 2018, published 2021).

As to `Nc1ccn([C@@H]2O[C@H](CO)[C@@H](O)C2(F)F)c(=O)n1` [gemcitabine, reference compound], in data set [1] (mice treated with gemcitabine 50 mg/kg i.p. alone (control group)), the “reduction in the number of neutrophils” value is listed as “about 45%”.

“1-Palmitoyl-2-Conjugated-Linoleoyl-3-Acetyl Glycerol [Example 1]”: the “NO production rate (%)” value is listed as 52 ± 3% in data set [2] (compound 10 μg/ml), 43 ± 3% in data set [2] (compound 100 μg/ml) and 37 ± 4% in data set [2] (compound 200 μg/ml). In addition, the “TNF-α production amount” value in data set [3] (compound 10 μg/ml) was found to be 170 ± 8 pg/mL; in data set [3] (compound 100 μg/ml), 153 ± 11 pg/mL; in data set [3] (compound 200 μg/ml) it was 121 ± 10 pg/mL. In addition, the “IL-6 production amount” value in data set [4] (compound 10 μg/ml) came to 321 ± 22 pg/mL; in data set [4] (compound 100 μg/ml) it was 225 ± 23 pg/mL; in data set [4] (compound 200 μg/ml) it was 180 ± 25 pg/mL. Besides, the Number of neutrophils in data set [5] is 1146 ± 63 µL⁻¹; in data set [1] it was 1198 ± 43 µL⁻¹. Moreover, the “decrease in the number of neutrophils” value in data set [5] (setting [8]) is given as “about 6.3%”. The “reduction in the number of neutrophils” value in data set [1] (setting [9]) was “about 2%”. For the same compound, the “Cell viability (%)” value in data set [6] (10 μg/ml) was found to be 100 ± 2.1%; in data set [6] (100 μg/ml) it was 98.3 ± 1.9%; in data set [6] (200 μg/ml), 98.1 ± 1.2%. The results for the “IL-1β Production amount” value in data set [7] (compound 10 μg/ml), in data set [7] (compound 100 μg/ml) and in data set [7] (compound 200 μg/ml) were 40 ± 2.9 pg/mL, 28 ± 2.3 pg/mL and 26 ± 2.8 pg/mL, respectively.

As to `CCCCC/C=C\C/C=C\CCCCCCCC(=O)OC(COC(C)=O)COC(=O)CCCCCCCCCCCCCCC` (centres unmarked) [Comparative Example, 1-Palmitoyl-2-Linoleoyl-3-Acetyl Glycerol, reference compound], the “NO production rate (%)” value in data set [2] (compound 10 μg/ml) is given as 56 ± 3%; in data set [2] (compound 100 μg/ml) it was 45 ± 2%; in data set [2] (compound 200 μg/ml) it was 41 ± 3%. Further, the entries for the “TNF-α production amount” value in data set [3] (compound 10 μg/ml), in data set [3] (compound 100 μg/ml) and in data set [3] (compound 200 μg/ml) were 184 ± 21 pg/mL, 155 ± 12 pg/mL and 137 ± 7 pg/mL, respectively. The results for the “IL-6 production amount” value in data set [4] (compound 10 μg/ml), in data set [4] (compound 100 μg/ml) and in data set [4] (compound 200 μg/ml) were 364 ± 16 pg/mL, 251 ± 24 pg/mL and 203 ± 25 pg/mL, respectively. Also, the Number of neutrophils is 1066 ± 88 µL⁻¹ in data set [5] and 1047 ± 42 µL⁻¹ in data set [1]. Besides, the “decrease in the number of neutrophils” value in data set [5] (setting [8]) came to 12.9%. The “reduction in the number of neutrophils” value in data set [1] (setting [9]) worked out at 14.5%. The “IL-1β Production amount” value in data set [7] (compound 10 μg/ml) came to 43 ± 2.2 pg/mL; in data set [7] (compound 100 μg/ml), 31 ± 2.4 pg/mL; in data set [7] (compound 200 μg/ml) it was 31 ± 3.1 pg/mL.

Take “1-Conjugated-Linoeoyl-2-Palmitoyl-3-Acetyl Glycerol [Example 2]”: the “NO production rate (%)” value in data set [2] (compound 10 μg/ml) stood at 50 ± 2%; in data set [2] (compound 100 μg/ml), 44 ± 3%; in data set [2] (compound 200 μg/ml), 34 ± 1%. The “TNF-α production amount” value in data set [3] (compound 10 μg/ml) was found to be 175 ± 7 pg/mL; in data set [3] (compound 100 μg/ml) it was 151 ± 10 pg/mL; in data set [3] (compound 200 μg/ml) it was 123 ± 7 pg/mL. Besides, the “IL-6 production amount” value in data set [4] (compound 10 μg/ml) is 325 ± 13 pg/mL; in data set [4] (compound 100 μg/ml), 234 ± 20 pg/mL; in data set [4] (compound 200 μg/ml), 179 ± 17 pg/mL. The Number of neutrophils worked out at 1124 ± 57 µL⁻¹ in data set [5] and 1142 ± 62 µL⁻¹ in data set [1]. Besides, the “decrease in the number of neutrophils” value in data set [5] (setting [8]) is reported as “about 8.2%”. Besides, the “reduction in the number of neutrophils” value in data set [1] (setting [9]) was found to be 6.7%. Also, the “Cell viability (%)” value in data set [6] (10 μg/ml) is on record as 100 ± 0.9%; in data set [6] (100 μg/ml) it was 98.3 ± 1.7%; in data set [6] (200 μg/ml), 98.0 ± 2.8%. The “IL-1β Production amount” value in data set [7] (compound 10 μg/ml) turned out to be 40 ± 1.7 pg/mL; in data set [7] (compound 100 μg/ml), 32 ± 2.4 pg/mL; in data set [7] (compound 200 μg/ml) it was 28 ± 1.7 pg/mL.

Consider `CC/C(=C(\c1ccccc1)c1ccc(OCCN(C)C)cc1)c1ccccc1` [tamoxifen, Tamoxifen, reference compound], for which the “decrease in number of neutrophils” value in data set [5] (mice treated with tamoxifen 50 mg/kg i.p. alone (control group), 3 weeks, relative to normal group) is listed as “about 37%”.
